Laboratory results from patent US6967196B1, “Sulfonamide compounds and uses thereof” (Bristol-Myers Squibb Company, priority 1999, dated 2005).
Where a name gives a salt, the structure may show the parent alone. Read-outs that look alike come from different tables or passages of the source. Each block holds one compound with its values, some of them ahead of it.

Tested on: amyloid β production in transfected H4 (human neuroglioma) cells stably expressing APP constructs
Experiment: In vitro cell-based assay of inhibitors of amyloid β production (ELISA)
Outline: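 Cells expressing wild-type or variant APP were plated ≥6 h before medium was replaced with compound-containing medium (initial screen 10-100 μM) and incubated ~16 h. Secreted Aβ in medium was quantified by sandwich ELISA (C-terminal-specific mouse monoclonal capture, N-terminal rabbit polyclonal detection) against an Aβ standard curve.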

[1] = transfected H4 cells stably expressing APP, approximately 16 hours incubation, amyloid β in medium by ELISA, Table B, read-out: ACTIVITY (IC50, inhibition of amyloid β production)
[2] = Homo sapiens, 16 h, transfected H4 cells expressing APP, approximately 16 hours incubation, amyloid β in medium by ELISA, read-out: ACTIVITY (IC50, inhibition of amyloid β production)
[3] = Homo sapiens, 16 h, transfected H4 cells stably expressing APP constructs, approximately 16 hours incubation, amyloid β in medium by ELISA, read-out: ACTIVITY (IC50, inhibition of amyloid β production)
[4] = transfected H4 cells stably expressing APP, approx. 16 h incubation, amyloid β in medium by ELISA, read-out: ACTIVITY (IC50, inhibition of amyloid β production)
[5] = Homo sapiens, 16 h, transfected H4 cells stably expressing APP, approximately 16 hours incubation, amyloid β in medium by ELISA, read-out: ACTIVITY (IC50, inhibition of amyloid β production)
[6] = transfected H4 cells stably expressing APP, approximately 16 hours incubation, amyloid β in medium by ELISA, read-out: ACTIVITY (IC50, inhibition of amyloid β production)
[7] = transfected H4 cells stably expressing APP constructs, approximately 16 hours incubation, amyloid β in medium by ELISA, read-out: ACTIVITY (IC50, inhibition of amyloid β production)

Compound: C[C@H](COC(=O)N1CCCC1)N(c1cc(F)ccc1F)S(=O)(=O)c1ccc(Cl)cc1 [Example 1238, 4-Chloro-N-(2,5-difluorophenyl)-N-[2-[[[pyrrolidin-1-yl]carbonyl]oxy]-R-1-methylethyl]benzenesulfonamide]
IC50 [3]: ≤ 25 nM

Compound: 2-((1R)-1-{[(4-chlorophenyl)sulfonyl]-2,5-difluoroanilino}ethyl)benzyl 2-(4-chlorophenyl)ethylcarbamate [Example 731]
IC50 [4]: 100 to 500 nM

Compound: 3-[2-((1R)-1-{[(4-chlorophenyl)sulfonyl]-2,5-difluoroanilino}ethyl)phenyl]propyl benzyl(methyl)carbamate [Example 763]
IC50 [4]: 100 to 500 nM

Compound: O=S(=O)(c1ccc(Cl)cc1)N(Cc1ccccc1OCCCN1CCCCCC1)c1ccccc1 [Example 305, N-{2-[3-(1-azepanyl)propoxy]benzyl}-4-chloro-N-phenylbenzenesulfonamide Hydrochloride]
IC50 [1]: 50 to 100 nM

Compound: CC(c1ccccc1OCCCN(C)S(=O)(=O)/C=C/c1ccccc1)N(c1cc(F)ccc1F)S(=O)(=O)c1ccc(Cl)cc1 (centres unmarked) [Example 773, 4-chloro-N-(2,5-difluorophenyl)-N-(1-{2-[3-(methyl{[(E)-2-phenylethyl]sulfonyl}amino)propoxy]phenyl}ethyl)benzenesulfonamide]
IC50 [4]: 100 to 500 nM

Compound: C[C@H](CCCS(=O)(=O)N1CCCC1)N(c1cc(Cl)ccc1Cl)S(=O)(=O)c1ccc(Cl)cc1 [Example 1204, 4-chloro-N-[2,5-dichlorophenyl]-N-[4-[(1-pyrrolidinyl)sulfonyl]-1(R)-methylbutyl]benzenesulfonamide]
IC50 [3]: ≤ 25 nM

Compound: O=S(=O)(c1ccc(Cl)cc1)N(Cc1ccccc1OCCCN1CCCCC1)c1cccc(Br)c1 [Example 237, N-(3-bromophenyl)-4-chloro-N-{2-[3-(1-piperidinyl)propoxy]benzyl}benzenesulfonamide Hydrochloride]
IC50 (read-out: ACTIVITY (inhibitory concentration IC50, inhibition of amyloid β production)): 25 to 50 nM

Compound: COC(=O)[C@H](CC(C)C)NC(=O)CCCC[C@@H](C)N(c1cc(Cl)ccc1F)S(=O)(=O)c1ccc(Cl)cc1 [Example 543, (R)-4-Chloro-N-(5-chloro-2-fluorophenyl)-N-[6-[N-(S)-[1-(methoxycarbonyl)-3-methylbutyl]amino]-1-methyl-6-oxohexyl]benzenesulfonamide]
IC50 [4]: 100 to 500 nM

Compound: S-{3-[2-({[(4-chlorophenyl)sulfonyl]-2,5-difluoroanilino}methyl)phenoxy]propyl} ethanethioate [Example 1014]
IC50 [6]: > 500 nM

Compound: O=C1CCN(CCCOc2ccccc2CN(c2ccccc2)S(=O)(=O)c2ccc(Cl)cc2)CC1 [Example 968, 4-chloro-N-{2-[3-(4-oxo-1-piperidinyl)propoxy]benzyl}-N-phenylbenzenesulfonamide hydrochloride]
IC50 [5]: > 500 nM

Compound: 4-[2-({[(2-nitrophenyl)sulfonyl]anilino}methyl)phenyl]butanoic acid [Example 1097]
IC50 [7]: > 10000 nM

Compound: 3,4-dichloro-N-{3-[2-(1-{[(4-chlorophenyl)sulfonyl]-2,5-difluoroanilino}ethyl)phenoxy]propyl}-N-methylbenzamide [Example 847]
IC50 [6]: 100 to 500 nM

Compound: C[C@H](c1ccccc1OCCCBr)N(c1cc(F)ccc1F)S(=O)(=O)c1ccc(Cl)cc1 [Example 1045, N-{(1R)-1-[2-(3-bromopropoxy)phenyl]ethyl}-4-chloro-N-(2,5-difluorophenyl)benzenesulfonamide]
IC50 [5]: > 500 nM

Compound: CC(c1ccccc1OCCN(C)S(=O)(=O)CC(F)(F)F)N(c1cc(F)ccc1F)S(=O)(=O)c1ccc(Cl)cc1 (centres unmarked) [Example 701, 4-chloro-N-(2,5-difluorophenyl)-N-{1-[2-(2-{methyl[(2,2,2-trifluorophenyl)sulfonyl]amino}ethoxy)phenyl]ethyl}benzenesulfonamide]
IC50 [4]: 100 to 500 nM

Compound: C[C@H](c1ccccc1CN1CCCCC1)N(c1cc(F)ccc1F)S(=O)(=O)c1ccc(Cl)cc1 [Example 939, 4-chloro-N-(2,5-difluorophenyl)-N-{(1R)-1-[2-(1-piperidinylmethyl)phenyl]ethyl}benzenesulfonamide hydrochloride]
IC50 [6]: > 500 nM

Compound: C[C@H](CCCNC(=O)[C@H](O)c1ccccc1)N(c1cc(Cl)ccc1Cl)S(=O)(=O)c1ccc(Cl)cc1 [Example 1129]
IC50 [7]: 50 to 100 nM

Compound: C[C@H](CCCOC(=O)N(C)CCO)N(c1cc(Cl)ccc1CO)S(=O)(=O)c1ccc(Cl)cc1 [Example 1297]
IC50 [2]: ≤ 25 nM

Continued, values first:

IC50 [1]: 50 to 100 nM
Compound: 2-[2-((1R)-1-{[(4-chlorophenyl)sulfonyl]-2,5-difluoroanilino}ethyl)-5-fluorophenyl]ethyl 2,5-difluorobenzylcarbamate [Example 358]

IC50 [2]: > 500 nM
Compound: C[C@H](C(=O)NC[C@]12CC3C[C@H](C[C@H](C3)C1)C2)N(c1cc(Cl)ccc1F)S(=O)(=O)c1ccc(Cl)cc1 [Example 1306]

IC50 [5]: > 500 nM
Compound: C=CCN(Cc1ccccc1OCCCN1CCCCC1)S(=O)(=O)c1ccc(Cl)cc1 [Example 985, N-allyl-4-chloro-N-{2-[3-(1-piperidinyl)propoxy]benzyl}benzenesulfonamide hydrochloride]

IC50 (Table B, transfected H4 cells stably expressing APP, approximately 16 hours incubation, amyloid β in medium by ELISA, read-out: ACTIVITY (inhibitory concentration IC50, inhibition of amyloid β production)): 25 to 50 nM
Compound: C[C@H](CC[S+]([O-])CC(=O)O)N(c1cc(Cl)ccc1Cl)S(=O)(=O)c1ccc(Cl)cc1 (some centres unmarked) [Example 182]

IC50 (transfected H4 cells stably expressing APP, approximately 16 hours incubation, amyloid β in medium by ELISA, hydrochloride, read-out: ACTIVITY (IC50, inhibition of amyloid β production)): > 500 nM
Compound: C[C@@H](c1ccccc1OCCCn1ccnc1)N(c1cc(F)ccc1F)S(=O)(=O)c1ccc(Cl)cc1 [Example 1048, 4-chloro-N-(2,5-difluorophenyl)-N-((1S)-1-{2-[3-(1H-imidazol-1-yl)propoxy]phenyl}ethyl)benzenesulfonamide hydrochloride]

IC50 [4]: 100 to 500 nM
Compound: 2-((1R)-1-{[(4-chlorophenyl)-sulfonyl]-2,5-difluoroanilino}ethyl)benzyl benzyl(methyl)carbamate [Example 715]

IC50 [6]: 100 to 500 nM
Compound: N-{3-[2-({[(4-chlorophenyl)sulfonyl]-2,5-difluoroanilino}methyl)phenoxy]propyl}-2,4-dimethoxy-N-methylbenzamide [Example 834]

IC50 [1]: 50 to 100 nM
Compound: COC(=O)CCSCCc1cc(F)ccc1[C@@H](C)N(c1cc(F)ccc1F)S(=O)(=O)c1ccc(Cl)cc1 [Example 473]

IC50 [5]: > 500 nM
Compound: CC(COc1ccccc1C(C)N(c1cc(F)ccc1F)S(=O)(=O)c1ccc(Cl)cc1)N(C)S(=O)(=O)c1ccc(Cl)cc1 (centres unmarked) [Example 885, 4-chloro-N-[1-(2-{2-[[(4-chlorophenyl)sulfonyl](methyl)amino]propoxy}phenyl)ethyl]-N-(2,5-difluorophenyl)benzenesulfonamide]

IC50 [5]: > 500 nM
Compound: COc1ccc(SCCCOc2ccccc2CN(c2cc(F)ccc2F)S(=O)(=O)c2ccc(Cl)cc2)cc1 [Example 1029, 4-chloro-N-(2,5-difluorophenyl)-N-(2-{3-[(4-methoxyphenyl)sulfanyl]propoxy}benzyl)benzenesulfonamide]

IC50 [6]: 100 to 500 nM
Compound: N-{3-[2-(1-{[(4-chlorophenyl)sulfonyl]-2,5-difluoroanilino}ethyl)phenoxy]propyl}-4-methoxybenzamide [Example 819]

IC50 [1]: 100 to 500 nM
Compound: CCCN(CCC)C(=O)CCCc1cc(F)ccc1[C@@H](C)N(c1cc(F)ccc1F)S(=O)(=O)c1ccc(Cl)cc1 [Example 500, 4-[2-((1R)-1-{[(4-chlorophenyl)sulfonyl]-2,5-difluoroanilino}ethyl)-5-fluorophenyl]-N,N-dipropylbutanamide]
